# According to PMC7979765, “trans-Translation inhibitors bind to a novel site on the ribosome and clear Neisseria gonorrhoeae in vivo” (Nature Communications, 2021):
# Read-outs that look alike come from different tables or passages of the source.
# Experiments:
# Androgen (testosterone) = target: T1, Androgen (testosterone) (Homo sapiens, UniProt P10275); assay: Receptor Profiling 206000; format: binding
# T1 construct: purchased Eurofins Discovery Services (Panlabs safety panel)
# Experimental: (§1) Several in vitro selectivity assays were performed at Eurofins Discovery Services using established methods and controls that behaved as expected (Supplementary Tables 5 and 6). […] For receptor panel profiling, MBX-4132 was evaluated at 10 μM and activity of >50% (agonist or antagonist; note that negative % inhibition indicates agonism) was scored as active.
# Caco-2 permeability = format: in vitro ADME, human; details: human
# Experimental: (§2) To evaluate the potential for oral bioavailability, the ability of prioritized compounds to permeate a monolayer of Caco-2 (ATCC HTB-37) intestinal epithelial cells was determined as described. Caco-2 permeability values (Papp) > 1 × 10^−6 cm/sec are predictive of oral bioavailability.
# Caco-2 cells = assay: Caco-2 permeability; format: in vitro ADME, human
# Experimental: as §2
# [1] = target: T2, Serotonin (5-hydroxytryptamine) 5-HT1A (Homo sapiens, UniProt P08908); assay: Receptor Profiling 271110; format: binding
# T2 construct: purchased Eurofins Discovery Services (Panlabs safety panel)
# Experimental: as §1
# CYP3A = CYP3A (Homo sapiens, UniProt P08684); assay: Cyp inhibition assays 4873, 4872; format: in vitro ADME
# Sequence of CYP3A (P08684 2-503): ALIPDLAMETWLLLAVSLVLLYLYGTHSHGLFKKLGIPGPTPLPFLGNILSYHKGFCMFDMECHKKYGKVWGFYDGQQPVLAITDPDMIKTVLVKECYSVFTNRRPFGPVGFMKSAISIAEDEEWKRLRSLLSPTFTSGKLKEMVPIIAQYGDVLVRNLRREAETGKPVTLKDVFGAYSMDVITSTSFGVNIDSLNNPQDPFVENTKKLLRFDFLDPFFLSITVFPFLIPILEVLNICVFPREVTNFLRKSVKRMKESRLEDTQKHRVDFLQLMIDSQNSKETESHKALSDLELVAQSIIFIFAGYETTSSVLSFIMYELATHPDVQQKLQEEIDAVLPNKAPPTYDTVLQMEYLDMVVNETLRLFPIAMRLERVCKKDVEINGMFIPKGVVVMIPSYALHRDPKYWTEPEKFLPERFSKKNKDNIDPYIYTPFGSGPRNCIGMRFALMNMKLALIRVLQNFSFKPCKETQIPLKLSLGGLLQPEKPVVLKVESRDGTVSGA
# Experimental: as §1
# [2] = target: T3, Transporter, Dopamine (DAT) (Homo sapiens, UniProt Q01959); assay: Receptor Profiling 220320; format: binding
# T3 construct: Eurofins Discovery Services (contract assay) 220320
# Experimental: as §1
# [3] = tested on: GABAA, Flunitrazepam, Central; assay: Receptor Profiling 226600; format: binding, rat; details: 10 μM
# Experimental: as §1
# Adrenergic β1 = target: T4, Adrenergic β1 (Homo sapiens, UniProt P08588); assay: Receptor Profiling 204010; format: binding
# T4 construct: purchased Eurofins Discovery Services (Panlabs safety panel)
# Experimental: as §1
# Opiate Kappa (OP2, KOP) = target: T5, Opiate Kappa (OP2, KOP) (Homo sapiens, UniProt P41145); assay: Receptor Profiling 260210; format: binding
# T5 construct: purchased Eurofins Discovery Services (Panlabs safety panel)
# Experimental: as §1
# [4] = target: T6, Cholinesterase, Acetyl, ACES (Homo sapiens, UniProt P22303); assay: Receptor Profiling 104010; format: biochemical
# T6 construct: Eurofins Discovery Services (contract assay) 104010
# T6 sequence (P22303 32-614): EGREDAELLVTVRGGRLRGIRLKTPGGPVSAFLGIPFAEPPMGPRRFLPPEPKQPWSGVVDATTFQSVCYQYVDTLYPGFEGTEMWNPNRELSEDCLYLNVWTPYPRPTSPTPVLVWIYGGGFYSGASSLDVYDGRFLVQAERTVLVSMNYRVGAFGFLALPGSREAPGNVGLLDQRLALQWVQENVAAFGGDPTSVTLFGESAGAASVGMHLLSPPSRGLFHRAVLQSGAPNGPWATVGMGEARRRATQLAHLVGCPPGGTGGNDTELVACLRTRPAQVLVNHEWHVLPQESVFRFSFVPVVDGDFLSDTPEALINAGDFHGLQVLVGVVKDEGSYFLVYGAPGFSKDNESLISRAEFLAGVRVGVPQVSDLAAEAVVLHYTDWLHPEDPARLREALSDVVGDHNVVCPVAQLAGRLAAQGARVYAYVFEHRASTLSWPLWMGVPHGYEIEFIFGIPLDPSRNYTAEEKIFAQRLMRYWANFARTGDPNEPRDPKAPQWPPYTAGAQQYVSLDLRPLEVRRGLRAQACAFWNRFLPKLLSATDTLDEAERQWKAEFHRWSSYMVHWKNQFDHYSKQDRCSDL
# Experimental: as §1
# Histamine H2 = target: T7, Histamine H2 (Homo sapiens, UniProt P25021); assay: Receptor Profiling 239710; format: binding
# T7 construct: purchased Eurofins Discovery Services (Panlabs safety panel)
# Experimental: as §1
# Moraxella catarrhalis = assay: MIC, microbroth dilution; format: cell-based
# Cycloogenase COX-2 = target: T8, Cycloogenase COX-2 (Homo sapiens, UniProt P35354); assay: Receptor Profiling 118030; format: biochemical
# T8 construct: Eurofins Discovery Services (contract assay) 118030
# Experimental: as §1
# Adrenergic β2 = target: T9, Adrenergic β2 (Homo sapiens, UniProt P07550); assay: Receptor Profiling 204110; format: binding
# T9 construct: purchased Eurofins Discovery Services (Panlabs safety panel)
# Experimental: as §1
# [5] = target: T10, Serotonin (5-hydroxytryptamine) 5-HT2A (Homo sapiens, UniProt P28223); assay: Receptor Profiling 271650; format: binding
# T10 construct: purchased Eurofins Discovery Services (Panlabs safety panel)
# Experimental: as §1
# Glucocorticoid = target: T11, Glucocorticoid (Homo sapiens, UniProt P04150); assay: Receptor Profiling 232030; format: binding
# T11 construct: purchased Eurofins Discovery Services (Panlabs safety panel)
# Experimental: as §1
# Adenosine A2A = target: T12, Adenosine A2A (Homo sapiens, UniProt P29274); assay: Receptor Profiling 200610; format: binding
# T12 construct: purchased Eurofins Discovery Services (Panlabs safety panel)
# Experimental: as §1
# Haemophilus influenzae = assay: MIC, microbroth dilution; format: cell-based
# Vasopressin V1A = target: T13, Vasopressin V1A (Homo sapiens, UniProt P37288); assay: Receptor Profiling 287530; format: binding
# T13 construct: purchased Eurofins Discovery Services 287530
# T13 sequence (P37288 whole entry): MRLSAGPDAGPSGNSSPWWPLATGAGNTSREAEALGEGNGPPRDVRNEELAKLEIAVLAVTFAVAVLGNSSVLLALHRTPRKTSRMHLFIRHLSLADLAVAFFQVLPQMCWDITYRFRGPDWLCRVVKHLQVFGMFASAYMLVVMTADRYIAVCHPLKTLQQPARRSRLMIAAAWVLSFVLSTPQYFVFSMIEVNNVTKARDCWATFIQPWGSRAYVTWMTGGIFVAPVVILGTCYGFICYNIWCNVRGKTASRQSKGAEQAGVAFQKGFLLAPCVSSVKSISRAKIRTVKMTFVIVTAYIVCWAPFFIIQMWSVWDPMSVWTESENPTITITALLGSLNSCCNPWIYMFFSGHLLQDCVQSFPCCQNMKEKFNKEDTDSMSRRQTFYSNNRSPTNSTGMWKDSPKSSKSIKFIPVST
# Experimental: as §1
# [6] = target: T14, Nicotinic Acetylcholine α4β2, Cytisine (Homo sapiens, UniProt P17787+P43681); assay: Receptor Profiling 299031; format: binding
# T14 construct: purchased Eurofins Discovery Services (Panlabs safety panel)
# T14 sequence (P43681 29-627 limits assumed): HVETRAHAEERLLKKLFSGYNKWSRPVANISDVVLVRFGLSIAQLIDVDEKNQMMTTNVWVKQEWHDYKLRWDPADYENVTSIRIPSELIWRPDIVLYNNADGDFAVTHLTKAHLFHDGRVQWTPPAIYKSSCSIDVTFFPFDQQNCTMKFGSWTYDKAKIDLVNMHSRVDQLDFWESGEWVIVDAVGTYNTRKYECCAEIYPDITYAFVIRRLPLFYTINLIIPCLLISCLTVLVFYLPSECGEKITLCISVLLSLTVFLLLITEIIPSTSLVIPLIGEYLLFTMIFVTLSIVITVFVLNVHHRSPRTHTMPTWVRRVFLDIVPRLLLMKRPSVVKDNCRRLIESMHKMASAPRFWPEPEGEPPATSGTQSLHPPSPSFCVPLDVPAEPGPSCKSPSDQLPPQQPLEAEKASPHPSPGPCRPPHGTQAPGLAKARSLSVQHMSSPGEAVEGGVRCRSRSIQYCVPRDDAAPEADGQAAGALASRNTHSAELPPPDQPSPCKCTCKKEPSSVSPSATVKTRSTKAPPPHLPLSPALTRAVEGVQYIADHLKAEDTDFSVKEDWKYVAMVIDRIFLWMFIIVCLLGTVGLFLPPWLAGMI
# T14 sequence (P17787 26-502): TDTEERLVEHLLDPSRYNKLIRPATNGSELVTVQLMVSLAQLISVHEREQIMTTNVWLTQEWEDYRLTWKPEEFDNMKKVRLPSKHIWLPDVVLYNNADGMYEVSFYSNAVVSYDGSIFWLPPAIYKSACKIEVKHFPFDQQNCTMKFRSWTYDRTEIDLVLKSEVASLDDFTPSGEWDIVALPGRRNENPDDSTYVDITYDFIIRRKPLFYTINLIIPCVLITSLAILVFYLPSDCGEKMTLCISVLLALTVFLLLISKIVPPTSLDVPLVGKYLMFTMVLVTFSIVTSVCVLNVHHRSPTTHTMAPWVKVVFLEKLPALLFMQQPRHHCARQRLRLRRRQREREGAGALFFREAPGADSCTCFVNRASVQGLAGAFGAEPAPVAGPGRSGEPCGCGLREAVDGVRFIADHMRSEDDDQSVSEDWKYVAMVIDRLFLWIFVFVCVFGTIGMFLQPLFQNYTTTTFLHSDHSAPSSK
# Experimental: as §1
# Monoamine Oxidase MAO-A = target: T15, Monoamine Oxidase MAO-A (Homo sapiens, UniProt P21397); assay: Receptor Profiling 140010; format: biochemical; details: negative % inhibition indicates agonism
# T15 construct: Eurofins Discovery Services (contract assay) 140010
# Experimental: as §1
# Dopamine D1 = target: T16, Dopamine D1 (Homo sapiens, UniProt P21728); assay: Receptor Profiling 219500; format: binding
# T16 construct: purchased Eurofins Discovery Services (Panlabs safety panel)
# Experimental: as §1
# Phosphodiesterase PDE4D2 = target: T17, Phosphodiesterase PDE4D2 (Homo sapiens, UniProt Q08499); assay: Receptor Profiling 154420; format: biochemical
# T17 construct: Eurofins Discovery Services (contract assay) 154420
# Experimental: as §1
# [7] = target: T18, Cholecystokinin CKK1 (CCKA) (Homo sapiens, UniProt P32238); assay: Receptor Profiling 218030; format: binding
# T18 construct: purchased Eurofins Discovery Services (Panlabs safety panel)
# Experimental: as §1
# [8] = mouse
# Nav1.5 late current = target: T19, Nav1.5 late current (Homo sapiens, UniProt Q14524); assay: Cardiac Ion Channel Panel; format: cell-based
# T19 construct: Eurofins Discovery Services (contract assay) CYL8004QP2DR; CYL7004QP1DR; CYL7004QP2DR
# T19 sequence (Q14524 whole entry): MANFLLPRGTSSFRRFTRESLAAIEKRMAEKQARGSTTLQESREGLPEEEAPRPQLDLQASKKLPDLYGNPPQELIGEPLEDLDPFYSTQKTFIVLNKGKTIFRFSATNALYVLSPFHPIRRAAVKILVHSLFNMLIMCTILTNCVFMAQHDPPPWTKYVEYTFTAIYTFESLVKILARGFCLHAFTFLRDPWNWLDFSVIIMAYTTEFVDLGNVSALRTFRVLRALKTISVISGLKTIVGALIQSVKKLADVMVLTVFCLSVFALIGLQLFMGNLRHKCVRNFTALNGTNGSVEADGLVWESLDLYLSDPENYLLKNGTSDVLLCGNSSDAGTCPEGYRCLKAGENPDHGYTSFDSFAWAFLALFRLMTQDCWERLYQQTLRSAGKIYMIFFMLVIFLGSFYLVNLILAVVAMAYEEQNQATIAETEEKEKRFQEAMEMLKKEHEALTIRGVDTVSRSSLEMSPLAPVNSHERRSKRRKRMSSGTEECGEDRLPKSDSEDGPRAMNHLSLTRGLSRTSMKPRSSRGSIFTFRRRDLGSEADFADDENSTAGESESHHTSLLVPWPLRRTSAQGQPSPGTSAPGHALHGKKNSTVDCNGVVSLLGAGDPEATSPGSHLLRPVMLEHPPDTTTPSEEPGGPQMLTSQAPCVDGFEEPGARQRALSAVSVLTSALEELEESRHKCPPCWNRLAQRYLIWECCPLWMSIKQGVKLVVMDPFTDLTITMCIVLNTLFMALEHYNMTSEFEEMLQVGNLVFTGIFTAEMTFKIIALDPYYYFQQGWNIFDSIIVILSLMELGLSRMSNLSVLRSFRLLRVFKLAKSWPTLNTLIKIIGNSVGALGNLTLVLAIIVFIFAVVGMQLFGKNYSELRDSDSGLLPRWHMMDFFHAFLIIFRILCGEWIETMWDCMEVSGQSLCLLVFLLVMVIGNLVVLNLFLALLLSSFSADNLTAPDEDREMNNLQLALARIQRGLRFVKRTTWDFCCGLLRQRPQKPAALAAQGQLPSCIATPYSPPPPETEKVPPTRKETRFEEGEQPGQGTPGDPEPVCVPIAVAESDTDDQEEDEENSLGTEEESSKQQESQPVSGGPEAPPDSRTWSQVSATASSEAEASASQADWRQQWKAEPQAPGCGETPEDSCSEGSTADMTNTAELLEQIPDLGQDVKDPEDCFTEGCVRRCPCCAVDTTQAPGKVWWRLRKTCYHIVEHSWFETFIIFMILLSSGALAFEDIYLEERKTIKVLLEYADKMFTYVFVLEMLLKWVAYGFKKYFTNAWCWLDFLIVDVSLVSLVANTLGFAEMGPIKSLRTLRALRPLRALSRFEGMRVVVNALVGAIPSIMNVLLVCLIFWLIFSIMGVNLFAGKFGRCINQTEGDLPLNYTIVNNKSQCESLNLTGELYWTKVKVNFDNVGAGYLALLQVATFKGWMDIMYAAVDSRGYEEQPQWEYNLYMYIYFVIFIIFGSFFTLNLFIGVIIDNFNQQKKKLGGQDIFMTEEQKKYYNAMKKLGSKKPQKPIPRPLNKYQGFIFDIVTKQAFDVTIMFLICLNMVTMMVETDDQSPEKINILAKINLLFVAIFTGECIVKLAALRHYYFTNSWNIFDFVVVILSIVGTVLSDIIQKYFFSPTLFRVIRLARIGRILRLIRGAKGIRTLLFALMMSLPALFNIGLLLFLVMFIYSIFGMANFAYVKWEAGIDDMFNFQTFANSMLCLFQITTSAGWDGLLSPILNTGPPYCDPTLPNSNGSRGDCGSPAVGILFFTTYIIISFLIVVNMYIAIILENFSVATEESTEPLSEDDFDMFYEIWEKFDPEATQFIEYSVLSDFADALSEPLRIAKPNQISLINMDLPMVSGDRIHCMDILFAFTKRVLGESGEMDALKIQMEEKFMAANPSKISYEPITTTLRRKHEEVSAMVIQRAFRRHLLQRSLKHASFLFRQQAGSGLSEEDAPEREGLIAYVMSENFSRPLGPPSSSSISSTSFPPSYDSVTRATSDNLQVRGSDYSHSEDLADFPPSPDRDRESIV
# Experimental: as §1
# Kir2.1 = target: T20, Kir2.1 (Homo sapiens, UniProt P63252); assay: Cardiac Ion Channel Panel; format: cell-based; details: Kir2.1 antagonist; Peak $ End; CYL8032QP2DR; read-out: IC50 (µM) reported
# T20 construct: Eurofins Discovery Services (contract assay) CYL8032QP2DR
# T20 sequence (P63252 whole entry): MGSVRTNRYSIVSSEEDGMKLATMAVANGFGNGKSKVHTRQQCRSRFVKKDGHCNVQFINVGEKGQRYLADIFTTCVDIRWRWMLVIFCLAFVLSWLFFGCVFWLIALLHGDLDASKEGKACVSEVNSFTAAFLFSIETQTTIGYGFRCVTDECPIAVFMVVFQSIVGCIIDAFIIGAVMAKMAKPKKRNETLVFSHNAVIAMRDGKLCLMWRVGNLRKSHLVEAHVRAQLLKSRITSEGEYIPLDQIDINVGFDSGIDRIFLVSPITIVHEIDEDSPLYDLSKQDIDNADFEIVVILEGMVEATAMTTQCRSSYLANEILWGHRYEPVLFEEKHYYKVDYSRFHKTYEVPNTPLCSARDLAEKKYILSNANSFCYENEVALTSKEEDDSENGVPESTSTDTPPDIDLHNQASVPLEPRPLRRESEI
# Experimental: as §1
# Kv4.3/ChIP2 = target: T21, Kv4.3/ChIP2 (Homo sapiens, UniProt Q9UK17); assay: Cardiac Ion Channel Panel; format: cell-based; details: Kv4.3/ChIP2 antagonist; Peak $ End; CYL8069QP2DR; read-out: IC50 (µM) reported
# T21 construct: Eurofins Discovery Services (contract assay) CYL8069QP2DR
# Experimental: as §1
# hERG = target: T22, hERG (Homo sapiens, UniProt Q12809); assay: Cardiac Ion Channel Panel; format: cell-based; details: hERG antagonist; CYL8038QP2DR; read-out: IC50 (µM) reported
# T22 construct: Eurofins Discovery Services (contract assay) CYL8038QP2DR
# Experimental: as §1
# Nav1.5 = target: T23, Nav1.5 (Homo sapiens, UniProt Q14524); assay: Cardiac Ion Channel Panel; format: cell-based
# T23 construct: Eurofins Discovery Services (contract assay) CYL8004QP2DR; CYL7004QP1DR; CYL7004QP2DR
# Experimental: as §1
structure (smiles),measurement,setting,value
O=C(Nc1nnc(-c2ccc(F)cc2)o1)N1CCc2ccccc2C1 [MBX-4132],inhibition at 10 µM,Androgen (testosterone),-2%
same,Papp A→B,"Caco-2 permeability; Caco-2, A to B, read-out: Caco-2 Papp (A to B)",11.1 ×10⁻⁶ cm/s
same,Papp A→B,"Caco-2 permeability; Caco-2, A→B, Average Value, Eurofins, read-out: Caco-2 A→B",11.1 ×10⁻⁶ cm/s
same,Papp A→B,"Caco-2 permeability; Caco-2, A→B, Replicate 1/2, Eurofins, read-out: Caco-2 A→B",12.4 ×10⁻⁶ cm/s
same,Papp A→B,"Caco-2 permeability; Caco-2, A→B, Reported value, Eurofins, read-out: Caco-2 A→B",11.1 ×10⁻⁶ cm/s
same,Papp B→A,"Caco-2 permeability; Caco-2, B to A, read-out: Caco-2 Papp B to A",7.3 ×10⁻⁶ cm/s
same,Papp B→A,"Caco-2 permeability; Caco-2, B→A, Average Value, Eurofins, read-out: Caco-2 B→A",7.3 ×10⁻⁶ cm/s
same,Papp B→A,"Caco-2 permeability; Caco-2, B→A, Replicate 1/2, Eurofins, read-out: Caco-2 B→A",6.33 ×10⁻⁶ cm/s
same,Papp B→A,"Caco-2 permeability; Caco-2, B→A, Reported value, Eurofins, read-out: Caco-2 B→A",7.3 ×10⁻⁶ cm/s
same,Caco-2 Papp (A to B),Caco-2 cells; A to B,11 x 10^-6 cms^-1
same,Caco-2 (Papp; x 10-6 cms-1) A→B,"Caco-2 cells; A→B, Replicate 1/2, Eurofins",9.9 x 10-6 cms-1
same,Caco-2 (Papp; x 10-6 cms-1) B→A,"Caco-2 cells; B→A, Replicate 1/2, Eurofins",8.19 x 10-6 cms-1
same,inhibition at 10 µM,[1],30%
same,pIC50 (µM) reported,"CYP3A; CYP3A midazolam, catalog reference 4873",No activity
same,IC50,"CYP3A; human, probe testosterone",> 100 µM
same,inhibition at 10 µM,[2],3%
same,% inhibition,[3],3%
same,inhibition at 10 µM,Adrenergic β1,-8%
same,inhibition at 10 µM,"Opiate Kappa (OP2, KOP)",13%
same,inhibition at 10 µM,[4],6%
same,inhibition at 10 µM,Histamine H2,-7%
same,MIC,"Moraxella catarrhalis; Moraxella catarrhalis 8716, replicates",0.0332 µg/mL
same,MIC,"Moraxella catarrhalis; Moraxella catarrhalis, Moraxella catarrhalis 8716, replicates, read-out: MIC",0.0332 µg/mL
same,MIC,"Moraxella catarrhalis; Moraxella catarrhalis, strain 8716, read-out: MIC",0.04 µg/mL
same,inhibition at 10 µM,Cycloogenase COX-2,10%
same,inhibition at 10 µM,Adrenergic β2,35%
same,inhibition at 10 µM,[5],18%
same,inhibition at 10 µM,Glucocorticoid,-2%
same,inhibition at 10 µM,Adenosine A2A,42%
same,MIC,"Haemophilus influenzae; Haemophilus influenzae ATCC 35056, replicates",17 µg/mL
same,MIC,"Haemophilus influenzae; Haemophilus influenzae, ATCC35056, Haemophilus influenzae ATCC 35056, replicates, read-out: MIC",17 µg/mL
same,MIC,"Haemophilus influenzae; Haemophilus influenzae, ATCC35056, strain ATCC 35056, read-out: MIC",17.5 µg/mL
same,inhibition at 10 µM,Vasopressin V1A,-4%
same,inhibition at 10 µM,[6],-5%
same,inhibition at 10 µM,Monoamine Oxidase MAO-A,-108%
same,inhibition at 10 µM,Dopamine D1,26%
same,inhibition at 10 µM,Phosphodiesterase PDE4D2,3%
same,inhibition at 10 µM,[7],66%
same,Murine serum stability (% remaining after 1 hr),[8],101%
same,IC50,Nav1.5 late current,> 30 µM
same,IC50,"Nav1.5 late current; read-out: Est. IC50, Antagonist mode",> 30 µM
same,IC50,"Nav1.5 late current; read-out: IC50 (µM) reported, Nav1.5 late current agonist, CYL7004QP1DR",> 30 µM
same,IC50,"Nav1.5 late current; read-out: IC50 (µM) reported, Nav1.5 late current antagonist, CYL7004QP2DR",> 30 µM
same,IC50,Kir2.1,> 30 µM
same,IC50,Kv4.3/ChIP2,> 30 µM
same,IC50,hERG,> 30 µM
same,IC50,Nav1.5,> 30 µM
